pIC50: −log10 of the molar value. Where two headings read alike, the source gives them in different places.
Tests used:
[1] = test system: A549 cells; assay: Cell proliferation PAD assay, A549; type: cell-based; conditions: Homo sapiens, 48 hours
Procedure: (§1) Cell lines used are available from American Type Culture Collection (ATCC), for example, cell cultures containing A549 (ATCC# CCL-185), HeLa (ATCC# CCL-2), HCT116 ATTC# CCL-247), and H1299 (ATCC# CRL-5803) cells were maintained in T175 flasks following the ATCC recommended media and handling procedures. […] A 20,000 cells/ml solution was made for plating. Cells were plated in black Packard 96 well plates by placing 100 μl per well (2,000 cells per well). […] The definitions of the cell types used are as follows: A549 is lung carcinoma; HI 299 is non-small cell lung carcinoma; HI 155 is non-small cell lung carcinoma; AsPC-1 is pancreatic adenocarcinoma; Caov-3 is ovarian adenocarcinoma; COLO 205 is colorectal adenocarcinoma; DLD-1 colorectal adenocarcinoma; HCT116 is colorectal carcinoma; DU 145 is prostate carcinoma; ES-2 is ovarian clear cell carcinoma; H460 is large cell lung carcinoma; HELA is cervical adenocarcinoma; MIA PaCa-2 is pancreatice carcinoma; OVCAR-3 is ovarian adenocarcinoma; OVCAR8 is ovarian carcinoma; PC3 is prostate adenocarcinoma; SK-OV-3 is ovarian adenocarcinoma; SU86.86 is pancreatic carcinoma; TOV-21G is avarian clear cell carcinoma; U2OS is bone osteosarcoma; is ASPC-I is pancreatic adenocarcinoma; BXPC-3 is pabcreatic adenocarcinoma; HL60 is promyeloblast promyelocytic leukemia; K562 is bone marrow chronic myelogenous leukemia; L1210 is mouse lymphocytic leukemia; MOLT3 is T lymphoblast acute lymphoblastic leukemia; MOLT4 is T lymphoblast acute lymphoblastic leukemia; SW620 is colorectal adenocarcinoma; THP-1 is monocyte acute monocytic leukemia; U937 is histiocytic lymphoma; and UACC-257 is melanoma.
(§2) Compounds and additional media were added 24 hours after cell plating. […] All compound testing was done in duplicate using 6.3 fold dilutions starting with 10 mM. […] Taxol and at least one additional control were run on all plates. Three microliters of the compound master plate were added to deep well blocks containing 750 μl of RPMI media. One hundred microliters were transferred from the compound/media deep well blocks to the plated cells resulting in a 500 fold dilution of the compounds. Cells were grown at 37° C., 5% CO2 for 48 hours.
(§3) Cells to be analyzed by photography were fixed and stained. One hundred microliters of media were removed and 100 μl of 9.3% formamide was added to each well. Plates were left on the benchtop for 45 minutes. A staining solution containing 1.55 μl of 1 mg/ml DAPI added to 18.75 ml PBS was warmed for 15 minutes at 37° C. The cells were aspirated prior to washing with 100 μl of PBS. Seventy microliters of PBS were aspirated and 170 μl of the DAPI solution were added to each well of fixed cells. Plates were left at room temperature for one hour then aspirated and washed twice with 100 μl of PBS. The stained cells were left at 4° C. for a minimum of 16 hours before photographic analysis with Array Scan II (Cellomics). Analysis of the photographic images to determine numbers of live cells (proliferation), apoptotic cells and dead cells, were according to the methods described in U.S. Utility patent application Ser. No. 10/652,440, which incorporated herein in its entirety.

[2] = test system: H1299 cells; assay: Cell proliferation PAD assay, H1299; type: cell-based; conditions: Homo sapiens, 48 hours
Procedure: as §1, §2, §3

[3] = NCI-H1299, 3pt, read-out: H1299 3pt
[4] = NCI-H1299, 6pt, read-out: H1299 6pt

Row | pIC50 ([1]; 3pt, read-out: A549 3pt) | pIC50 [2, 3] | pIC50 ([1]; 6pt, read-out: A549 6pt) | pIC50 [2, 4] | SMILES
1 | ≤ 4.70 | ≤ 4.70 |  |  | O=S(=O)(NCCN1CCCC1)c1cccc2nonc12 [compound 55, N-(2-pyrrolidin-1-ylethyl)-2,1,3-benzoxadiazole-4-sulfonamide]
2 | ≤ 4.70 | ≤ 4.70 |  |  | O=S(=O)(Nc1ccccn1)c1cccc2nonc12 [compound 58, N-pyridin-2-yl-2,1,3-benzoxadiazole-4-sulfonamide]
3 | ≤ 4.70 | ≤ 4.70 |  |  | O=S(=O)(NCCF)c1cccc2nonc12 [compound 59, N-(2-fluoroethyl)-2,1,3-benzoxadiazole-4-sulfonamide]
4 | ≤ 4.70 | ≤ 4.70 |  |  | O=S(=O)(Nc1ccc(N2CCOCC2)c(Cl)c1)c1cccc2nonc12 [compound 66, N-(3-chloro-4-morpholin-4-ylphenyl)-2,1,3-benzoxadiazole-4-sulfonamide]
5 | ≤ 4.70 | ≤ 4.70 |  |  | O=S(=O)(Nc1ccncc1)c1cccc2nonc12 [compound 68, N-pyridin-4-yl-2,1,3-benzoxadiazole-4-sulfonamide]
6 | ≤ 4.70 | ≤ 4.70 |  |  | N#Cc1ccccc1S(=O)(=O)Nc1cccc2nsnc12 [compound 100, N-2,1,3-benzothiadiazol-4-yl-2-cyanobenzenesulfonamide]
7 | ≤ 4.70 | ≤ 4.70 |  |  | O=S(=O)(c1cccc2nonc12)N1CCN(c2cccc(C(F)(F)F)c2)CC1 [compound 125, 4({4-[3-(trifluoromethyl)phenyl]piperazin-1-yl}sulfonyl)-2,1,3-benzoxadiazole]
8 | ≤ 4.70 | ≤ 4.70 |  |  | CC(=O)N1CCN(S(=O)(=O)c2cccc3nonc23)CC1 [compound 128, 4-[(4-acetylpiperazin-1-yl)sulfonyl]-2,1,3-benzoxadiazole]
9 | ≤ 4.70 | ≤ 4.70 |  |  | O=C(CN1CCN(S(=O)(=O)c2cccc3nonc23)CC1)N1CCOCC1 [compound 129, 4-{[4-(2-morpholin-4-yl-2-oxoethyl)piperazin-1-yl]sulfonyl}-2,1,3-benzoxadiazole]
10 | ≤ 4.70 | ≤ 4.70 |  |  | O=S(=O)(c1cccc2nonc12)N1CCN(c2ncccn2)CC1 [compound 130, 4-[(4-pyrimidin-2-ylpiperazin-1-yl)sulfonyl]-2,1,3-benzoxadiazole]
11 | ≤ 4.70 | ≤ 4.70 |  |  | O=S(=O)(c1cccc2nonc12)N1CCN(c2ccc(Cl)c(C(F)(F)F)c2)CC1 [compound 132, 4-({4-[4-chloro-3-(trifluoromethyl)phenyl]piperazin-1-yl}sulfonyl)-2,1,3-benzoxadiazole]

The next lines start with the compound.

Row | SMILES | pIC50 ([1]; 3pt, read-out: A549 3pt) | pIC50 [2, 3] | pIC50 ([1]; 6pt, read-out: A549 6pt) | pIC50 [2, 4]
12 | Cc1ccc(NS(=O)(=O)c2cccc3nonc23)c(Cl)c1 [compound 54, N-(2-chloro-4-methylphenyl)-2,1,3-benzoxadiazole-4-sulfonamide] | ≤ 4.70 | ≤ 4.70 |  | 
13 | Cc1ccc(Cl)cc1NS(=O)(=O)c1cccc2nonc12 [compound 56, N-(5-chloro-2-methylphenyl)-2,1,3-benzoxadiazole-4-sulfonamide] | ≤ 4.70 | ≤ 4.70 |  | 
14 | O=S(=O)(Nc1ccccc1I)c1cccc2nonc12 [compound 57, N-(2-iodophenyl)-2,1,3-benzoxadiazole-4-sulfonamide] | ≤ 4.70 | ≤ 4.70 |  | 
15 | O=S(=O)(Nc1cc(Cl)ccc1Cl)c1cccc2nonc12 [compound 60, N-(2,5-dichlorophenyl)-2,1,3-benzoxadiazole-4-sulfonamide] | ≤ 4.70 | ≤ 4.70 |  | 
16 | COC(=O)c1ccc(C(=O)OC)c(NS(=O)(=O)c2cccc3nonc23)c1 [compound 63, dimethyl 2-[(2,1,3-benzoxadiazol-4-ylsulfonyl)amino]terephthalate] | ≤ 4.70 | ≤ 4.70 |  | 
17 | O=[N+]([O-])c1ccc(NS(=O)(=O)c2cccc3nonc23)cc1 [compound 65, N-(4-nitrophenyl)-2,1,3-benzoxadiazole-4-sulfonamide] | ≤ 4.70 | ≤ 4.70 |  | 
18 | O=S(=O)(Nc1ccccc1OC(F)(F)F)c1cccc2nonc12 [compound 67, N[2-(trifluoromethoxy)phenyl]2,1,3-benzoxadiazole-4-sulfonamide] | ≤ 4.70 | ≤ 4.70 |  | 
19 | O=S(=O)(Nc1cccc2nsnc12)c1cc(F)c(F)c(F)c1 [compound 71, N-2,1,3-benzothiadiazol-4-yl-3,4,5-trifluorobenzenesulfonamide] | 4.70 to 6.00 | ≤ 4.70 |  | 
20 | CCOC(=O)c1cccc(NS(=O)(=O)c2cccc3nonc23)c1 [compound 74, ethyl 3-[(2,1,3-benzoxadiazol-4-ylsulfonyl)amino]benzoate] | ≤ 4.70 | ≤ 4.70 |  | 
21 | O=S(=O)(Nc1cccc2nsnc12)c1ccc(F)c(Cl)c1 [compound 76, N-2,1,3-benzothiadiazol-4-yl-3-chloro-4-fluorobenzenesulfonamide] | ≤ 4.70 | ≤ 4.70 |  | 
22 | O=S(=O)(Nc1cccc2nsnc12)c1ccc(F)cc1Br [compound 77, N-2,1,3-benzothiadiazol-4-yl-2-bromo-4-fluorobenzenesulfonamide] | ≤ 4.70 | ≤ 4.70 |  | 
23 | O=S(=O)(Nc1cccc2nsnc12)c1cc(Cl)c(O)c(Cl)c1 [compound 96, N-2,1,3-benzothiadiazol-4-yl-3,5-dichloro-4-hydroxybenzenesulfonamide] | ≤ 4.70 | ≤ 4.70 |  | 
24 | O=S(=O)(Nc1cccc2nsnc12)c1cccc(Br)c1 [compound 97, N-2,1,3-benzothiadiazol-4-yl-3-bromoberizenesulfonamide] | ≤ 4.70 | ≤ 4.70 |  | 
25 | O=S(=O)(Nc1cccc2nsnc12)c1ccc(CBr)cc1 [compound 98, N-2,1,3-benzothiadiazol-4-yl-4-(bromomethyl)benzenesulfonamide] | ≤ 4.70 | ≤ 4.70 |  | 
26 | N#Cc1cccnc1N1CCN(S(=O)(=O)c2cccc3nonc23)CC1 [compound 119, 2-[4-(2,1,3-benzoxadiazol-4-ylsulfonyl)piperazin-1-yl]nicotinonitrile] | ≤ 4.70 | ≤ 4.70 |  | 
27 | N#Cc1ccc(N2CCN(S(=O)(=O)c3cccc4nonc34)CC2)nc1 [compound 120, 6-[4-(2,1,3-benzoxadiazol-4-ylsulfonyl)piperazin-1-yl]nicotinonitrile] | ≤ 4.70 | ≤ 4.70 |  | 
28 | O=S(=O)(c1cccc2nonc12)N1CCN(c2ccccn2)CC1 [compound 123, 4-[(4-Pyridin-2-ylpiperazin-1-yl)-sulfonyl]-2,1,3-benzoxadiazole] | ≤ 4.70 | ≤ 4.70 |  | 
29 | O=S(=O)(c1cccc2nonc12)N1CCN(c2cc(C(F)(F)F)ccn2)CC1 [compound 124, 4-({4-[4-(trifluoromethyl)pyridin-2-yl]piperazin-1-yl}sulfonyl)-2,1,3-benzoxadiazole] | ≤ 4.70 | ≤ 4.70 |  | 
30 | O=S(=O)(c1cccc2nonc12)N1CCN(c2ccncc2)CC1 [compound 126, 4-[(4-pyridin-4-ylpiperazin-1-yl)sulfonyl]-2,1,3-benzoxadiazole] | ≤ 4.70 | ≤ 4.70 |  | 
31 | O=S(=O)(c1cccc2nonc12)N1CCN(CCN2CCOCC2)CC1 [compound 127] | ≤ 4.70 | ≤ 4.70 |  | 
32 | O=S(=O)(c1cccc2nonc12)N1CCN(c2cnccn2)CC1 [compound 131, 4-[(4-pyrazin-2-ylpiperazin-1-yl)sulfonyl]-2,1,3-benzoxadiazole] | ≤ 4.70 | ≤ 4.70 |  | 
33 | CSc1ccc(-c2ccc([N+](=O)[O-])c3nonc23)cc1 [compound 318, 7-[4-(Methylthio)phenyl]-4-nitro-2,1,3-benzoxadiazole] |  |  | > 6.00 | > 6.00
34 | COc1cccc(-c2ccc([N+](=O)[O-])c3nonc23)c1 [compound 319, 7-(3-Methoxyphenyl)-4-nitro-2,1,3-benzoxadiazole] |  |  | > 6.00 | > 6.00
35 | O=[N+]([O-])c1ccc(-c2cccc(F)c2)c2nonc12 [compound 320, 7-(3-Fluorophenyl)-4-nitro-2,1,3-benzoxadiazole] |  |  | 4.70 to 6.00 | > 6.00
